Experimental data published in US12583866B2, “Pyrido[2,3-b][1,4]oxazines or tetrahydropyrido[2,3-b][1,4]oxazepines as IAP antagonists” (BEIGENE, LTD., priority 2020, dated 2026).

Key:
[1] = target: T1, recombinant human cIAP1-BIR3 protein (Homo sapiens, UniProt Q13490); test: Recombinant human c-IAP1-BIR3 biochemical assay (HTRF, peptide displacement); conditions: 1.2 nM cIAP1-BIR3, 3 nM AbuRPF-K(5-Fam)-NH2 peptide, read-out: Protein binding IC50 (nM) c-IAP1
T1 construct: recombinant human cIAP1-BIR3 protein; purchased Reaction biology APT-11-370
Summary of the method: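 1.2 nM cIAP1-BIR3 preincubated 1 h at room temperature with compound (10 points, 4-fold, top 10 uM) in 20 mM HEPES pH 7.5, 50 mM NaCl, 1 mM DTT; 3 nM AbuRPF-K(5-Fam)-NH2 then added for 1 h, then anti-6His Tb cryptate for 1 h. 520/490 nm ratio; IC50 by four-parameter logistic fit.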

[2] = target: T2, recombinant human cIAP2-BIR3 protein (Homo sapiens, UniProt Q13489); test: Recombinant human c-IAP2-BIR3 biochemical assay (HTRF, peptide displacement); conditions: 3.7 nM cIAP2-BIR3, 3.7 nM AbuRPF-K(5-Fam)-NH2 peptide, read-out: Protein binding IC50 (nM) c-IAP2
T2 construct: recombinant human cIAP2-BIR3 protein; purchased Reaction biology APT-11-372
Summary of the method: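 3.7 nM protein pre-incubated 1 h at room temperature with compounds (top 10 uM, 4-fold, 10 points) in 20 mM HEPES pH 7.5, 50 mM NaCl, 0.005% Tween-20, 1 mM DTT. Then 3.7 nM AbuRPF-K(5-Fam)-NH2 for 1 h, then anti-6His Tb cryptate 1 h. IC50 from 520/490 nm HTRF ratio, four-parameter logistic fit.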

[3] = target: T3, recombinant human XIAP-BIR3 protein (Homo sapiens, UniProt P98170); test: Recombinant human XIAP-BIR3 biochemical assay (HTRF, peptide displacement); conditions: 3.7 nM XIAP-BIR3, 7.6 nM AbuRPF-K(5-Fam)-NH2 peptide, read-out: Protein binding IC50 (nM) XIAP
T3 construct: recombinant human XIAP-BIR3 protein; purchased Reaction biology APT-11-374
Summary of the method: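 3.7 nM His-tagged XIAP-BIR3 was preincubated 1 h RT with compound (top 10 µM, 4-fold, 10 points) in 20 mM HEPES pH 7.5, 50 mM NaCl, 0.005% Tween-20, 1 mM DTT. 7.6 nM AbuRPF-K(5-Fam)-NH2 peptide was then added, followed by anti-6His Tb cryptate, 1 h each. HTRF 520/490 nm ratio; four-parameter logistic IC50.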

T1 sequence (Q13490 253-363 limits assumed): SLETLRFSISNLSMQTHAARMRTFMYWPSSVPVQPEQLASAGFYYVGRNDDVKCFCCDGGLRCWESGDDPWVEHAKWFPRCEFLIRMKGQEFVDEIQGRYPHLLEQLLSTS
T3 sequence (P98170 241-356 limits assumed): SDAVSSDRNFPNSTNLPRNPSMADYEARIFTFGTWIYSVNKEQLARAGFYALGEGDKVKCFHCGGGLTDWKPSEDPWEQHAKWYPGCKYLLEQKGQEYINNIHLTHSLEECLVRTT
T2 sequence (Q13489 238-349 limits assumed): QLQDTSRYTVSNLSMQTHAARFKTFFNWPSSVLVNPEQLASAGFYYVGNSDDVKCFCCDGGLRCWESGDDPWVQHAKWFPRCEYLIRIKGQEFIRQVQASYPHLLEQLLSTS

SMILES | IC50 [1] [nM] | IC50 [2] [nM] | IC50 [3] [nM]
C[C@@H]1CN(CC(=O)N2c3cc(Cc4ccc(F)cc4)cnc3OC[C@@H]2c2ccccc2)[C@@H](CN2CCOC[C@H]2C)CN1 [Compound 45, 1-((S)-7-(4-fluorobenzyl)-2-phenyl-2,3-dihydro-1H-pyrido[2,3-b][1,4]oxazin-1-yl)-2-((2R,5R)-5-methyl-2-(((R)-3-methylmorpholino)methyl)piperazin-1-yl)ethan-1-one] | 0.34 | 0.65 | 8.5
CC(C)[C@H]1COc2ncc(Cc3ccc(F)cc3)cc2N1C(=O)CN1C[C@@H](C)NC[C@@H]1CN1[C@H](C)COC[C@H]1C [Compound 46, 2-((2R,5R)-2-(((3R,5R)-3,5-dimethylmorpholino)methyl)-5-methylpiperazin-1-yl)-1-((S)-7-(4-fluorobenzyl)-2-isopropyl-2,3-dihydro-1H-pyrido[2,3-b][1,4]oxazin-1-yl)ethan-1-one] | 0.24 | 0.47 | 63
CC(C)[C@H]1COc2ncc(Cc3ccc(F)cc3)cc2N1C(=O)CN1C[C@@H](C)NC[C@@H]1CN1CCOC[C@H]1C [Compound 47, 1-((S)-7-(4-fluorobenzyl)-2-isopropyl-2,3-dihydro-1H-pyrido[2,3-b][1,4]oxazin-1-yl)-2-((2R,5R)-5-methyl-2-(((R)-3-methylmorpholino)methyl)piperazin-1-yl)ethan-1-one] | 0.57 | 1.43 | 84
C[C@@H]1CN(CC(=O)N2c3cc(Cc4ccc(F)cc4)c(CO)nc3OC[C@@H]2C)[C@@H](CN2CCOCC2(C)C)CN1 [Compound 48] | 0.45 | 0.79 | 12
C[C@@H]1CN(CC(=O)N2c3cc(Cc4ccc(F)cc4)c(CO)nc3OC[C@@H]2C)[C@@H](CN2C[C@H](C)OC[C@H]2C)CN1 [Compound 49] | 0.3 | 0.48 | 3.6
C[C@@H]1CN(CC(=O)N2c3cc(Cc4ccc(F)cc4)c(CO)nc3OC[C@@H]2C)[C@@H](CN2CCOCC23CC3)CN1 [Compound 50, 2-((2R,5R)-2-((7-oxa-4-azaspiro[2.5]octan-4-yl)methyl)-5-methylpiperazin-1-yl)-1-((S)-7-(4-fluorobenzyl)-6-(hydroxymethyl)-2-methyl-2,3-dihydro-1H-pyrido[2,3-b][1,4]oxazin-1-yl)ethan-1-one] | 0.44 | 0.93 | 14
CC[C@@H]1COCCN1C[C@H]1CN[C@H](C)CN1CC(=O)N1c2cc(Cc3ccc(F)cc3)c(CO)nc2OC[C@@H]1C [Compound 51, 2-((2R,5R)-2-(((R)-3-ethylmorpholino)methyl)-5-methylpiperazin-1-yl)-1-((S)-7-(4-fluorobenzyl)-6-(hydroxymethyl)-2-methyl-2,3-dihydro-1H-pyrido[2,3-b][1,4]oxazin-1-yl)ethan-1-one] | 0.3 | 0.67 | 9.2
COC[C@@H]1COCCN1C[C@H]1CN[C@H](C)CN1CC(=O)N1c2cc(Cc3ccc(F)cc3)c(CO)nc2OC[C@@H]1C [Compound 52, 1-((S)-7-(4-fluorobenzyl)-6-(hydroxymethyl)-2-methyl-2,3-dihydro-1H-pyrido[2,3-b][1,4]oxazin-1-yl)-2-((2R,5R)-2-(((R)-3-(methoxymethyl)morpholino)methyl)-5-methylpiperazin-1-yl)ethan-1-one] | 0.55 | 1.1 | 13
CCOC[C@@H]1COCCN1C[C@H]1CN[C@H](C)CN1CC(=O)N1c2cc(Cc3ccc(F)cc3)c(CO)nc2OC[C@@H]1C [Compound 53] | 0.46 | 1.2 | 12
C[C@@H]1CN(CC(=O)N2c3cc(Cc4ccc(F)cc4)c(CO)nc3OC[C@@H]2C)[C@@H](CN2CCOC[C@H]2CO)CN1 [Compound 54, 1-((S)-7-(4-fluorobenzyl)-6-(hydroxymethyl)-2-methyl-2,3-dihydro-1H-pyrido[2,3-b][1,4]oxazin-1-yl)-2-((2R,5R)-2-(((R)-3-(hydroxymethyl)morpholino)methyl)-5-methylpiperazin-1-yl)ethan-1-one] | 1.7 | 2.8 | 25
C[C@@H]1CN(CC(=O)N2c3cc(Cc4ccc(F)cc4)c(CO)nc3OC[C@@H]2C)[C@@H](CN2CCOC[C@H]2C(F)F)CN1 [Compound 55] | 1.3 | 1.9 | 34
C[C@@H]1CN(CC(=O)N2c3cc(Cc4ccc(F)cc4)c(CO)nc3OC[C@@H]2C)[C@@H](CN2CCOCC23CCC3)CN1 [Compound 56, 2-((2R,5R)-2-((8-oxa-5-azaspiro[3.5]nonan-5-yl)methyl)-5-methylpiperazin-1-yl)-1-((S)-7-(4-fluorobenzyl)-6-(hydroxymethyl)-2-methyl-2,3-dihydro-1H-pyrido[2,3-b][1,4]oxazin-1-yl)ethan-1-one] | 1 | 2.2 | 30
COC[C@H]1COc2nc(CO)c(Cc3ccc(F)cc3)cc2N1C(=O)CN1C[C@@H](C)NC[C@@H]1CN1CCOC[C@H]1C [Compound 57, 1-((S)-7-(4-fluorobenzyl)-6-(hydroxymethyl)-2-(methoxymethyl)-2,3-dihydro-1H-pyrido[2,3-b][1,4]oxazin-1-yl)-2-((2R,5R)-5-methyl-2-(((R)-3-methylmorpholino)methyl)piperazin-1-yl)ethan-1-one] | 1.2 | 1.9 | 95
COC[C@H]1COc2nc(CO)c(Cc3ccc(F)cc3)cc2N1C(=O)CN1C[C@@H](C)NC[C@@H]1CN1[C@H](C)COC[C@H]1C [Compound 58, 2-((2R,5R)-2-(((3R,5R)-3,5-dimethylmorpholino)methyl)-5-methylpiperazin-1-yl)-1-((S)-7-(4-fluorobenzyl)-6-(hydroxymethyl)-2-(methoxymethyl)-2,3-dihydro-1H-pyrido[2,3-b][1,4]oxazin-1-yl)ethan-1-one] | 0.11 | 0.17 | 9.5
CC(C)OC[C@@H]1COCCN1C[C@H]1CN[C@H](C)CN1CC(=O)N1c2cc(Cc3ccc(F)cc3)c(CO)nc2OC[C@@H]1C [Compound 59] | 0.26 | 0.67 | 7.8
C[C@@H]1CN(CC(=O)N2c3cc(Cc4ccc(F)cc4)c(CO)nc3OC[C@@H]2C)[C@@H](CN2C3CCC2COC3)CN1 [Compound 86] | 0.89 | 0.95 | 15
CCOc1nc2c(cc1Cc1ccc(F)cc1)N(C(=O)CN1C[C@@H](C)NC[C@@H]1CN1[C@H](C)COC[C@H]1C)[C@@H](C)CO2 [Compound 87] | 0.18 | 0.23 | 3.3
C[C@@H]1CN(CC(=O)N2c3cc(Cc4ccc(F)cc4)c(C(N)=O)nc3OC[C@@H]2C)[C@@H](CN2CCOCC23CC3)CN1 [Compound 88, (S)-1-(2-((2R,5R)-2-((7-oxa-4-azaspiro[2.5]octan-4-yl)methyl)-5-methylpiperazin-1-yl)acetyl)-7-(4-fluorobenzyl)-2-methyl-2,3-dihydro-1H-pyrido[2,3-b][1,4]oxazine-6-carboxamide] | 0.35 | 0.63 | 12.4
COCCOc1nc2c(cc1Cc1ccc(F)cc1)N(C(=O)CN1C[C@@H](C)NC[C@@H]1CN1[C@H](C)COC[C@H]1C)[C@@H](C)CO2 [Compound 89, 2-((2R,5R)-2-(((3R,5R)-3,5-dimethylmorpholino)methyl)-5-methylpiperazin-1-yl)-1-((S)-7-(4-fluorobenzyl)-6-(2-methoxyethoxy)-2-methyl-2,3-dihydro-1H-pyrido[2,3-b][1,4]oxazin-1-yl)ethan-1-one] | 0.17 | 0.36 | 3.1
C[C@@H]1CN(CC(=O)N2c3cc(Cc4ccc(F)cc4)c(OCCN4CCOCC4)nc3OC[C@@H]2C)[C@@H](CN2[C@H](C)COC[C@H]2C)CN1 [Compound 90] | 0.22 | 0.34 | 3.8
C[C@@H]1CN(CC(=O)N2c3cc(Cc4ccc(F)cc4)c(CO)nc3OC[C@@H]2C)[C@@H](CN2CCOC[C@H]2C(F)(F)F)CN1 [Compound 91A, 1-((S)-7-(4-fluorobenzyl)-6-(hydroxymethyl)-2-methyl-2,3-dihydro-1H-pyrido[2,3-b][1,4]oxazin-1-yl)-2-((2R,5R)-5-methyl-2-(((S)-3-(trifluoromethyl)morpholino)methyl)piperazin-1-yl)ethan-1-one] | 0.72 | 1.25 | 30
